Measurements as given in US9073830B2 (Hyundai Pharm Co., Ltd., priority 2011, dated 2015).

Experiments:
mouse 11β-HSD1 = target: T1, mouse 11β-HSD1 (Mus musculus, UniProt P50172); test: Enzyme activity analysis on mouse 11β-HSD1 (HTRF cortisol, liver microsomes); format: biochemical; conditions: second value of cell
T1 construct: 100 ug/ml human/mouse liver microsomes; from tissue; host or cells: mouse liver microsomes
Experimental: (§1) After culturing at 37° C. for 2 hours, 5 μl of cryptate-labeled anti-cortisol antibody and 5 μl of d2-labeled cortisol were added thereto. After further culturing at room temperature for 2 hours, a homogeneous time-resolved fluorescence (HTRF, Cisbio) signal was measured. From each analysis, based on a standard curve calculated using cortisols of several known concentrations, an amount of produced cortisol was tested.
(§2) While an amount of cortisol, produced without the compound, was used as a control, an inhibition percentage by the test compound, at each concentration, was calculated. By using an inhibition curve calculated by coordinates of inhibition percentage to test compound concentration, an IC50 value of the compound on 11β-HSD1 was obtained.

human 11β-HSD1 = target: T2, human 11β-HSD1 (Homo sapiens, UniProt P28845); test: Enzyme activity analysis on human 11β-HSD1 (HTRF cortisol, liver microsomes); format: biochemical; conditions: first value of cell
T2 construct: 100 ug/ml human/mouse liver microsomes; from tissue; host or cells: human liver microsomes
T2 sequence (P28845 whole entry): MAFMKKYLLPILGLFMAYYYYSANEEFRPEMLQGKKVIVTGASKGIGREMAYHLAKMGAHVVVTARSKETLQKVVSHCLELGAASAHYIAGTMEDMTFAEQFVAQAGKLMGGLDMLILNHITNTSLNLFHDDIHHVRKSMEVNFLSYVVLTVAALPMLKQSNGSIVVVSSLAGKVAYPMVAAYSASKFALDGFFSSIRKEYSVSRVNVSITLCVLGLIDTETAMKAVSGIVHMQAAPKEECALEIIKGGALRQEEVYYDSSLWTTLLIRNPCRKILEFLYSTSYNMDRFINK
Experimental: as §1, §2

T1 sequence (P50172 whole entry): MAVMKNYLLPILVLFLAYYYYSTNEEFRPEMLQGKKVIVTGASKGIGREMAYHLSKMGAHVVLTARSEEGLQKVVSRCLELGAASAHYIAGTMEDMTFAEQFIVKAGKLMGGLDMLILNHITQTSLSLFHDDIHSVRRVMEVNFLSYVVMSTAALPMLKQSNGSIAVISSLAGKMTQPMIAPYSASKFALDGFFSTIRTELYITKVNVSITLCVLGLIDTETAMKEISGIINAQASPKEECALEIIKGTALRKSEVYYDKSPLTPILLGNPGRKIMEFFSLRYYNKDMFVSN

Row | Structure (SMILES) | IC50 (mouse 11β-HSD1) | IC50 (human 11β-HSD1)
1 | CC(C)(NS(=O)(=O)c1ccccc1)C(=O)NC1C2CC3CC(C2)CC1C3 (stereo not drawn) [compound 1, N-(adamantane-2-yl)-2-methyl-2-(phenylsulfonamido)propanamide] | 0.19 µM | 0.04 µM
2 | CC(C)(NS(=O)(=O)c1ccc([N+](=O)[O-])cc1)C(=O)NC1C2CC3CC(C2)CC1C3 (stereo not drawn) [compound 3, N-(adamantane-2-yl)-2-methyl-2-(4-nitrophenylsulfonamido)propanamide] | 1.7 µM | 1.33 µM
3 | CC(C)(NS(=O)(=O)c1ccc(OC(F)(F)F)cc1)C(=O)NC1C2CC3CC(C2)CC1C3 (stereo not drawn) [compound 4, N-(adamantane-2-yl)-2-methyl-2-(4-(trifluoromethoxy)phenylsulfonamido)propanamide] | 1.68 µM | 1.32 µM
4 | CC(C)(NS(=O)(=O)c1ccc(Cl)cc1)C(=O)NC1C2CC3CC(C2)CC1C3 (stereo not drawn) [compound 5, N-(adamantane-2-yl)-2-methyl-2-(4-chlorophenylsulfonamido)propanamide] | 1.05 µM | 0.43 µM
5 | CC(C)(NS(=O)(=O)c1ccccc1Cl)C(=O)NC1C2CC3CC(C2)CC1C3 (stereo not drawn) [compound 6, N-(adamantane-2-yl)-2-methyl-2-(2-chlorophenylsulfonamido)propanamide] | 0.04 µM | 0.02 µM
6 | CC(C)(NS(=O)(=O)c1cccc(Cl)c1Cl)C(=O)NC1C2CC3CC(C2)CC1C3 (stereo not drawn) [compound 8, N-(adamantane-2-yl)-2-methyl-2-(2,3-dichlorophenylsulfonamido)propanamide] | 0.264 µM | 0.052 µM
7 | CC(C)(NS(=O)(=O)c1cc(Cl)ccc1Cl)C(=O)NC1C2CC3CC(C2)CC1C3 (stereo not drawn) [compound 9, N-(adamantane-2-yl)-2-methyl-2-(2,5-dichlorophenylsulfonamido)propanamide] | > 2.5 µM | 0.091 µM
8 | CC(C)(NS(=O)(=O)c1c(Cl)cc(Cl)cc1Cl)C(=O)NC1C2CC3CC(C2)CC1C3 (stereo not drawn) [compound 14, N-(adamantane-2-yl)-2-methyl-2-(2,4,6-trichlorophenylsulfonamido)propanamide] | – | 0.17 µM
9 | Cc1ccccc1S(=O)(=O)NC(C)(C)C(=O)NC1C2CC3CC(C2)CC1C3 (stereo not drawn) [compound 15, N-(adamantane-2-yl)-2-methyl-2-(2-methylphenylsulfonamido)propanamide] | 0.313 µM | 0.036 µM
10 | CC(C)(NS(=O)(=O)c1ccccc1F)C(=O)NC1C2CC3CC(C2)CC1C3 (stereo not drawn) [compound 16, N-(adamantane-2-yl)-2-methyl-2-(2-fluorophenylsulfonamido)propanamide] | 0.255 µM | 0.034 µM
11 | CC(C)(NS(=O)(=O)c1cccc2cccnc12)C(=O)NC1C2CC3CC(C2)CC1C3 (stereo not drawn) [compound 17, N-(adamantane-2-yl)-2-methyl-2-(quinoline-8-sulfonamido)propanamide] | 0.008 µM | 0.008 µM
12 | CC(C)(NS(=O)(=O)c1cccc2ccccc12)C(=O)NC1C2CC3CC(C2)CC1C3 (stereo not drawn) [compound 20, N-(adamantane-2-yl)-2-methyl-2-(naphthalene-1-sulfonamido)propanamide] | – | 0.304 µM
13 | CC(C)(NS(=O)(=O)c1ccc2ccccc2c1)C(=O)NC1C2CC3CC(C2)CC1C3 (stereo not drawn) [compound 21, N-(adamantane-2-yl)-2-methyl-2-(naphthalene-2-sulfonamido)propanamide] | – | 0.466 µM
14 | CC(C)(NS(=O)(=O)Cc1ccccc1[N+](=O)[O-])C(=O)NC1C2CC3CC(C2)CC1C3 (stereo not drawn) [compound 22, N-(adamantane-2-yl)-2-methyl-2-((2-nitrophenyl)methylsulfonamido)propanamide] | 1.06 µM | 0.033 µM
15 | CC(C)(NS(=O)(=O)c1ccccc1OC(F)(F)F)C(=O)NC1C2CC3CC(C2)CC1C3 (stereo not drawn) [compound 25, N-(adamantane-2-yl)-2-methyl-2-(2-(trifluoromethoxy)phenylsulfonamido)propanamide] | 0.42 µM | 0.045 µM
16 | CC(C)(NS(=O)(=O)c1cc(Cl)cc(Cl)c1)C(=O)NC1C2CC3CC(C2)CC1C3 (stereo not drawn) [compound 26, N-(adamantane-2-yl)-2-methyl-2-(3,5-dichlorophenylsulfonamido)propanamide] | > 2.5 µM | 1.27 µM
17 | CN(C(C)(C)C(=O)NC1C2CC3CC1CC(C(N)=O)(C3)C2)S(=O)(=O)c1ccccc1F (stereo not drawn) [compound 195, N-4-(2-(2-fluoro-N-methylphenylsulfonamido)-2-methylpropanamido)adamantane-1-carboxyamide] | 0.015 µM | –

Further compounds by falling IC50 (human 11β-HSD1), results first:

Row | IC50 (mouse 11β-HSD1) | IC50 (human 11β-HSD1) | Structure (SMILES)
18 | – | 1.14 µM | CC(C)(NS(=O)(=O)c1ccc(C(C)(C)C)cc1)C(=O)NC1C2CC3CC(C2)CC1C3 (stereo not drawn) [compound 18, N-(adamantane-2-yl)-2-methyl-2-(4-(t-butyl)phenylsulfonamido)propanamide]
19 | 1.12 µM | 0.555 µM | Cc1ccc(S(=O)(=O)NC(C)(C)C(=O)NC2C3CC4CC(C3)CC2C4)cc1F (stereo not drawn) [compound 27, N-(adamantane-2-yl)-2-methyl-2-(4-methyl-3-fluorophenylsulfonamido)propanamide]
20 | – | 0.478 µM | CC(C)(NS(=O)(=O)c1cccc(C(F)(F)F)c1)C(=O)NC1C2CC3CC(C2)CC1C3 (stereo not drawn) [compound 19, N-(adamantane-2-yl)-2-methyl-2-(3-trifluoromethylphenylsulfonamido)propanamide]
21 | – | 0.404 µM | COc1ccc(S(=O)(=O)NC(C)(C)C(=O)NC2C3CC4CC(C3)CC2C4)cc1 (stereo not drawn) [compound 24, N-(adamantane-2-yl)-2-methyl-2-(4-methoxyphenylsulfonamido)propanamide]
22 | – | 0.35 µM | CC(C)(NS(=O)(=O)c1ccc(Cl)c(Cl)c1)C(=O)NC1C2CC3CC(C2)CC1C3 (stereo not drawn) [compound 11, N-(adamantane-2-yl)-2-methyl-2-(3,4-dichlorophenylsulfonamido)propanamide]
23 | 0.735 µM | 0.212 µM | CC(C)(NS(=O)(=O)c1cccc(Cl)c1)C(=O)NC1C2CC3CC(C2)CC1C3 (stereo not drawn) [compound 10, N-(adamantane-2-yl)-2-methyl-2-(3-chlorophenylsulfonamido)propanamide]
24 | 0.437 µM | 0.133 µM | Cc1cccc(S(=O)(=O)NC(C)(C)C(=O)NC2C3CC4CC(C3)CC2C4)c1 (stereo not drawn) [compound 28, N-(adamantane-2-yl)-2-methyl-2-(3-methylphenylsulfonamido)propanamide]
25 | 0.888 µM | 0.1 µM | CC(C)(NS(=O)(=O)c1ccc(F)cc1)C(=O)NC1C2CC3CC(C2)CC1C3 (stereo not drawn) [compound 2, N-(adamantane-2-yl)-2-methyl-2-(4-fluorophenylsulfonamido)propanamide]
26 | 0.33 µM | 0.08 µM | Cc1c(Cl)cccc1S(=O)(=O)NC(C)(C)C(=O)NC1C2CC3CC(C2)CC1C3 (stereo not drawn) [compound 7, N-(adamantane-2-yl)-2-methyl-2-(3-chloro-2methylphenylsulfonamido)propanamide]
27 | 0.267 µM | 0.032 µM | CC(C)(NS(=O)(=O)c1ccccc1C(F)(F)F)C(=O)NC1C2CC3CC(C2)CC1C3 (stereo not drawn) [compound 13, N-(adamantane-2-yl)-2-methyl-2-(2-trifluoromethylphenylsulfonamido)propanamide]
28 | 0.051 µM | 0.02 µM | CC(C)(NS(=O)(=O)c1ccccc1Br)C(=O)NC1C2CC3CC(C2)CC1C3 (stereo not drawn) [compound 12, N-(adamantane-2-yl)-2-methyl-2-(2-bromophenylsulfonamido)propanamide]
